Assay results published in ChEMBL document CHEMBL3352542, “Synthesis, biological evaluation and molecular modeling study of 2-(1,3,4-thiadiazolyl-thio and 4-methyl-thiazolyl-thio)-quinazolin-4-ones as a new class of DHFR inhibitors” (Bioorg Med Chem Lett, 2014).

Key:
Candida albicans = assay: Antimicrobial activity against Candida albicans assessed as inhibition zone at 200 ug/disk after 24 hrs by disc-diffusion method; assay type: functional; conditions: read-out: IZ
HT-29 = assay: Growth inhibition of human HT-29 cells at 10 uM after 48 hrs; assay type: functional; conditions: HT-29, 48 h, read-out: GI
[1] = Growth inhibition of human MOLT4 cells at 10 uM after 48 hrs; assay type: functional; conditions: MOLT-4, 48 h, read-out: GI
Dihydrofolate reductase = biological target: T1, Dihydrofolate reductase (Bos taurus, UniProt P00376); assay: Inhibition of bovine liver DHFR
T1 sequence (P00376 whole entry): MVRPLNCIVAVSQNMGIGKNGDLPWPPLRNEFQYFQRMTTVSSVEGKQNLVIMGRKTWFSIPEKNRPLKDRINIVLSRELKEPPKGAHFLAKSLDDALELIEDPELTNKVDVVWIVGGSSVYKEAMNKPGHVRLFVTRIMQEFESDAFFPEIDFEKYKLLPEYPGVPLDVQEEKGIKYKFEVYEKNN

[2] = Growth inhibition of human HCT116 cells at 10 uM after 48 hrs; assay type: functional; conditions: HCT-116, 48 h, read-out: GI
M14 = assay: Growth inhibition of human M14 cells at 10 uM after 48 hrs; assay type: functional; conditions: M14, 48 h, read-out: GI
[3] = Growth inhibition of human UACC62 cells at 10 uM after 48 hrs; assay type: functional; conditions: UACC-62, 48 h, read-out: GI
T47D = assay: Growth inhibition of human T47D cells at 10 uM after 48 hrs; assay type: functional; conditions: read-out: GI
[4] = Growth inhibition of human HCT15 cells at 10 uM after 48 hrs; assay type: functional; conditions: HCT-15, 48 h, read-out: GI
NCI-H522 = assay: Growth inhibition of human NCI-H522 cells at 10 uM after 48 hrs; assay type: functional; conditions: NCI-H522, 48 h, read-out: GI
Staphylococcus aureus = assay: Antimicrobial activity against Staphylococcus aureus assessed as inhibition zone at 200 ug/disk after 24 hrs by disc-diffusion method; assay type: functional; conditions: read-out: IZ
[5] = Growth inhibition of human HOP92 cells at 10 uM after 48 hrs; assay type: functional; conditions: HOP-92, 48 h, read-out: GI
786-0 = assay: Growth inhibition of human 786-0 cells at 10 uM after 48 hrs; assay type: functional; conditions: 786-0, 48 h, read-out: GI
CCRF-CEM = assay: Growth inhibition of human CCRF-CEM cells at 10 uM after 48 hrs; assay type: functional; conditions: read-out: GI
[6] = Growth inhibition of human PC3 cells at 10 uM after 48 hrs; assay type: functional; conditions: PC-3, 48 h, read-out: GI
[7] = Growth inhibition of human LOXIMVI cells at 10 uM after 48 hrs; assay type: functional; conditions: LOX IMVI, read-out: GI
SK-MEL-5 = assay: Growth inhibition of human SK-MEL-5 cells at 10 uM after 48 hrs; assay type: functional; conditions: SK-MEL-5, 48 h, read-out: GI
[8] = Growth inhibition of human UO31 cells at 10 uM after 48 hrs; assay type: functional; conditions: UO-31, 48 h, read-out: GI
[9] = Growth inhibition of human COLO205 cells at 10 uM after 48 hrs; assay type: functional; conditions: COLO 205, 48 h, read-out: GI
[10] = Growth inhibition of human NCI-ADR-RES cells at 10 uM after 48 hrs; assay type: functional; conditions: read-out: GI
A549 = assay: Growth inhibition of human A549 cells at 10 uM after 48 hrs; assay type: functional; conditions: A549, 48 h, read-out: GI
K562 = assay: Growth inhibition of human K562 cells at 10 uM after 48 hrs; assay type: functional; conditions: K562, 48 h, read-out: GI
A498 = assay: Growth inhibition of human A498 cells at 10 uM after 48 hrs; assay type: functional; conditions: A498, 48 h, read-out: GI
[11] = Growth inhibition of human RXF393 cells at 10 uM after 48 hrs; assay type: functional; conditions: RXF 393, 48 h, read-out: GI
[12] = Growth inhibition of human HCC2998 cells at 10 uM after 48 hrs; assay type: functional; conditions: HCC 2998, 48 h, read-out: GI
Pseudomonas aeruginosa = assay: Antimicrobial activity against Pseudomonas aeruginosa assessed as inhibition zone at 200 ug/disk after 24 hrs by disc-diffusion method; assay type: functional; conditions: read-out: IZ
[13] = Growth inhibition of human OVCAR8 cells at 10 uM after 48 hrs; assay type: functional; conditions: OVCAR-8, 48 h, read-out: GI
Bacillus subtilis = assay: Antimicrobial activity against Bacillus subtilis assessed as inhibition zone at 200 ug/disk after 24 hrs by disc-diffusion method; assay type: functional; conditions: read-out: IZ
[14] = Growth inhibition of human OVCAR4 cells at 10 uM after 48 hrs; assay type: functional; conditions: OVCAR-4, 48 h, read-out: GI
[15] = Growth inhibition of human UACC257 cells at 10 uM after 48 hrs; assay type: functional; conditions: UACC-257, 48 h, read-out: GI
NCI-H226 = assay: Growth inhibition of human NCI-H226 cells at 10 uM after 48 hrs; assay type: functional; conditions: NCI-H226, 48 h, read-out: GI
SW-620 = assay: Growth inhibition of human SW620 cells at 10 uM after 48 hrs; assay type: functional; conditions: SW-620, 48 h, read-out: GI
[16] = Growth inhibition of human BT549 cells at 10 uM after 48 hrs; assay type: functional; conditions: BT-549, 48 h, read-out: GI
Escherichia coli = assay: Antimicrobial activity against Escherichia coli assessed as inhibition zone at 200 ug/disk after 24 hrs by disc-diffusion method; assay type: functional; conditions: read-out: IZ
SNB-75 = assay: Growth inhibition of human SNB75 cells at 10 uM after 48 hrs; assay type: functional; conditions: SNB-75, 48 h, read-out: GI
SN12C = assay: Growth inhibition of human SN12C cells at 10 uM after 48 hrs; assay type: functional; conditions: read-out: GI
U-251 = assay: Growth inhibition of human U251 cells at 10 uM after 48 hrs; assay type: functional; conditions: U-251, 48 h, read-out: GI
ACHN = assay: Growth inhibition of human ACHN cells at 10 uM after 48 hrs; assay type: functional; conditions: read-out: GI
MDA-MB-468 = assay: Growth inhibition of human MDA-MB-468 cells at 10 uM after 48 hrs; assay type: functional; conditions: MDA-MB-468, 48 h, read-out: GI
[17] = Growth inhibition of human RPMI8226 cells at 10 uM after 48 hrs; assay type: functional; conditions: RPMI-8226, 48 h, read-out: GI
HL-60(TB) = assay: Growth inhibition of human HL-60(TB) cells at 10 uM after 48 hrs; assay type: functional; conditions: HL-60, 48 h, read-out: GI
MCF7 = assay: Growth inhibition of human MCF7 cells at 10 uM after 48 hrs; assay type: functional; conditions: MCF7, 48 h, read-out: GI
[18] = Growth inhibition of human SF295 cells at 10 uM after 48 hrs; assay type: functional; conditions: SF-295, 48 h, read-out: GI
[19] = Growth inhibition of human Hs 578T cells at 10 uM after 48 hrs; assay type: functional; conditions: read-out: GI
[20] = Growth inhibition of human SF539 cells at 10 uM after 48 hrs; assay type: functional; conditions: SF-539, 48 h, read-out: GI

## COc1cc2nc(Sc3sc(N)nc3C)n(-c3ccc(Oc4ccccc4)cc3)c(=O)c2cc1OC
Candida albicans
  zone of inhibition at 200 µg/disc: 8 mm
HT-29
  inhibition of growth at 10 µM: 25%
[1]
  inhibition of growth at 10 µM: 46.1%
Dihydrofolate reductase
  IC50: 6 µM
[2]
  inhibition of growth at 10 µM: 52.7%
M14
  inhibition of growth at 10 µM: 18.5%
[3]
  inhibition of growth at 10 µM: 18.6%
T47D
  inhibition of growth at 10 µM: 22.7%
[4]
  inhibition of growth at 10 µM: 20.1%
NCI-H522
  inhibition of growth at 10 µM: 16.3%
Staphylococcus aureus
  zone of inhibition at 200 µg/disc: 8 mm
[5]
  inhibition of growth at 10 µM: 20.5%
786-0
  inhibition of growth at 10 µM: 20%
CCRF-CEM
  inhibition of growth at 10 µM: 35.5%
[6]
  inhibition of growth at 10 µM: 34.9%
[7]
  inhibition of growth at 10 µM: 21.7%
SK-MEL-5
  inhibition of growth at 10 µM: 23.2%
[8]
  inhibition of growth at 10 µM: 23.9%
[9]
  inhibition of growth at 10 µM: 24.1%
[10]
  inhibition of growth at 10 µM: 24.8%
A549
  inhibition of growth at 10 µM: 16.7%
K562
  inhibition of growth at 10 µM: 21.5%
A498
  inhibition of growth at 10 µM: 18%
[11]
  inhibition of growth at 10 µM: 14.1%
[12]
  inhibition of growth at 10 µM: 19.6%
Pseudomonas aeruginosa
  zone of inhibition at 200 µg/disc: 8 mm
[13]
  inhibition of growth at 10 µM: 15%
Bacillus subtilis
  zone of inhibition at 200 µg/disc: 8 mm
[14]
  inhibition of growth at 10 µM: 49.3%
[15]
  inhibition of growth at 10 µM: 10.3%
NCI-H226
  inhibition of growth at 10 µM: 10.3%
SW-620
  inhibition of growth at 10 µM: 18.8%
[16]
  inhibition of growth at 10 µM: 28.7%
Escherichia coli
  zone of inhibition at 200 µg/disc: 8 mm
SNB-75
  inhibition of growth at 10 µM: 13.3%
SN12C
  inhibition of growth at 10 µM: 20.3%
U-251
  inhibition of growth at 10 µM: 12.4%
ACHN
  inhibition of growth at 10 µM: 18.5%
MDA-MB-468
  inhibition of growth at 10 µM: 19.9%
[17]
  inhibition of growth at 10 µM: 32.4%
HL-60(TB)
  inhibition of growth at 10 µM: 21.2%
MCF7
  inhibition of growth at 10 µM: 25.7%
[18]
  inhibition of growth at 10 µM: 14.6%
[19]
  inhibition of growth at 10 µM: 11.6%
[20]
  inhibition of growth at 10 µM: 18.7%
